Measurements taken from patent publication US20040091947A1, “Screening strategy for anticancer drugs” (priority 2002, published 2004).

Key:
[1] = tested on: BJ-EN cells; test: Cell growth / cell number by Coulter counter, doxorubicin-treated cells
[2] = tested on: panel of 14 solid tumor-derived cell lines; conditions: moderate equitoxic doses of doxorubicin, 14 lines, cited from earlier work
[3] = tested on: BJ-ELB cells; test: Cell growth / cell number by Coulter counter, doxorubicin-treated cells; assay type: cell-based, human
Description: These cell lines were cultured in a 4:1 mixture of DMEM and Medium 199, with 10% fetal calf serum, supplemented with glutamine, pyruvate, penicillin and streptomycin.
For comparative analysis of specific cellular responses, a concentration of 30 nM doxorubicin was chosen, which had approximately equal growth-inhibitory effect in both cell lines (FIG. 3B).

[4] = tested on: BJ-ELB cells; test: Fluorescence microscopy of DAPI-stained cells (micronuclei, apoptotic morphology, mitotic index, mitotic figures)
[5] = tested on: BJ-EN cells; test: as above
[6] = tested on: HT1080 cells transduced with GSE56; test: FACS analysis of GF7/PI stained cells, radiation-induced changes in MI; assay type: cell-based, human; conditions: 4 mM caffeine, 9 Gy irradiation
Description: (§1) Mitotic index and the incidence of mitotic catastrophe were determined using mitotic cell specific antibodies (MCSA) as follows. Three different MCSA were compared using fluorescence activated cell sorting (FACS) based on immunofluorescence labeling with MCSA coupled with propidium iodide (PI) staining for DNA content. In this procedure, cells were washed, trypsinized, fixed with an equal volume of 70% ethanol (on ice), resuspended in a small volume of 1% BSA-PBS containing an MCSA, incubated for 1 hour at room temperature, and then washed and bound with secondary (fluorescently-labeled) antibody. The tested MCSA included MPM2 (available from Upstate Biotechnology, Cat. #05-368) and two antibodies provided by Dr. P. Davies (Albert Einstein College of Medicine), including the previously characterized TG3 (Anderson et al., 1998, Exp. Cell Res. 238: 498-502) and unpublished GF7 antibody.
(§2) FACS analysis of GF7/PI stained cells was used to analyze radiation-induced changes in the MI of HT1080 fibrosarcoma cells with different cell cycle checkpoint integrity status.

[7] = tested on: wild-type HT1080 cells; test: as above; assay type: cell-based, human; conditions: 4 mM caffeine, 9 Gy irradiation
Description: as §1, §2

[8] = after release from 30 nM doxorubicin (3 days)
[9] = day 2 after release from 30 nM doxorubicin
[10] = two days after release from 30 nM doxorubicin (3 days)
[11] = two days after release from doxorubicin

## COc1cccc2c1C(=O)c1c(O)c3c(c(O)c1C2=O)C[C@@](O)(C(=O)CO)C[C@@H]3O[C@H]1C[C@H](N)[C@H](O)[C@H](C)O1 [doxorubicin]
[1]; 30 nM doxorubicin, 3 days, BJ-EN
  change in cell number during doxorubicin treatment: essentially no change in cell number
[1]; 3-day exposure to different concentrations, BJ-EN compared with BJ-ELB, except for the lowest drug doses
  resistance to doxorubicin (effect on cell growth): more resistant to doxorubicin than BJ-ELB cells
[1]; three days in drug-free media after 30 nM doxorubicin for 3 days, BJ-EN
  change in cell number after release from the drug: did not change significantly
[2]; all other lines developed mitotic catastrophe
  lines that showed predominantly apoptotic response: two
[2]
  lines that exhibited the senescent phenotype after doxorubicin treatment: Eleven of 14
[3]; 30 nM doxorubicin, first day
  change in cell number during doxorubicin treatment: increased their number on the first day
[3]; day 3 after release (3 dR) from 30 nM doxorubicin
  change in cell number after release from the drug: decreased to the same value as at the time of doxorubicin addition
[4]; 30 nM doxorubicin present
  effect of addition of doxorubicin on mitosis: only partially inhibited
[4]; [8]
  fraction of cells with apoptotic morphology: 6.6%
[4]; [9]
  mitotic index (MI): 8.0%
[4]; [10]
  micronucleated cell fraction: 26.4%
[4]; [11]
  mitotic figures that represented anaphase or telophase: 1%
  normal mitotic figures: 8%
[5]; 30 nM doxorubicin present
  effect of addition of doxorubicin on mitosis: immediate and complete cessation of mitosis
[5]; [8]
  fraction of cells with apoptotic morphology: 0.9%
[5]; [9]
  mitotic index (MI): 0.4%
[5]; [10]
  micronucleated cell fraction: 1.7%
[5]; [11]
  abnormal mitotic figures: 40%
  mitotic figures that were metaphases and telophases: 29%
  normal mitotic figures: 60%

## Cn1c(=O)c2c(ncn2C)n(C)c1=O [caffeine]
[6]
  increase in MI after irradiation in the presence of caffeine: up to 3 fold
[7]
  increase in MI after irradiation in the presence of caffeine: ~2 fold
